Data: article PMC3907537, “Evaluation of the Endothelin Receptor Antagonists Ambrisentan, Bosentan, Macitentan, and Sitaxsentan as Hepatobiliary Transporter Inhibitors and Substrates in Sandwich-Cultured Human Hepatocytes” (PLoS ONE, 2014)
pIC50: −log10 of the molar value.

How the values were obtained:
[1] = test system: sandwich-cultured human hepatocytes; assay: Hepatic disposition (intracellular accumulation) of ERAs in sandwich-cultured human hepatocytes; type: in vitro ADME; conditions: sandwich-cultured human hepatocytes, 1, 10 and 100 µM, 10 min, n = 3 donors
Method: Sandwich-cultured human hepatocytes were obtained from Celsis/IVT (Baltimore, MD) or Life Technologies (Durham, NC). Donors were male (n = 3) and female (n = 1) between the ages of 31 and 62 years old. Hepatic uptake, biliary excretion and in vitro biliary clearance (Clb) were determined using the B-CLEAR® hepatocyte sandwich culture model as described by Liu et al., 1999 [34]. In this system, hepatocytes form functional bile canalicular networks while maintaining the expression and function of key uptake and efflux transporters. The canalicular system of bile pockets remains separate from the cellular culture media due to tight junctions between cells. The integrity of these tight junctions is maintained in the presence of calcium (Plus (+) buffer) while in the absence of calcium (Minus (−) buffer), these tight junctions open and release the contents of the canalicular network into the media.
Incubation solutions containing ERA (1, 10 and 100 µM) were prepared in Plus (+) buffer. Cell culture medium was removed from the wells and the cells were washed twice with Plus (+) or Minus (−) buffer. The wash solutions were then removed and replaced with fresh Plus (+) or Minus (−) buffer. The cells were conditioned for 10 min at 37°C. After the 10 min exposure, the buffer solutions were removed and replaced with the incubation solutions and incubated for 10 min at 37°C. Following 10 min incubation, the incubation solutions were removed and the cells were then washed three times with ice-cold Plus (+) Buffer. The plates were frozen at −80°C until processed for bioanalysis.
Study samples were stored in their original 24-well plates at −80°C until prepared for analysis. A volume of 500 µL of cell lysis solution (70∶30 methanol:water) containing 25 nM internal standard was added to each well and mixed for 20 min of mixing. […] Prepared samples were filtered and analyzed by LC-MS/MS using a Shimadzu binary HPLC system (Columbia, MD) and tandem mass spectrometry using Thermo Electron TSQ® Quantum Discovery MAX™ (Waltham, MA) with an Ion Max ESI source operating in negative ion electrospray ionization mode. Results for unknowns and QCs were calculated using a standard curve based on an internal standard processing method.
Data calculations were performed using Microsoft Excel, 2010 with all values reported as mean ± standard deviation (SD). […] All mass values were normalized to mg protein by taking the average protein mass in the taurocholate plate determined using a BCA protein assay (Pierce Biotechnology, Rockford, IL). Cellular accumulation determined in Minus (−) buffer (Accumulation Minus (−) Buffer) represents the total mass of analyte inside the hepatocyte at the end of the incubation time period. […]

BSEP = target: T1, BSEP (Homo sapiens, UniProt O95342); assay: BSEP inhibition, taurocholate transport in Sf9 membrane vesicles; type: biochemical; conditions: taurocholate 2 µM, mean ± SD of 3 independent studies in duplicate, tested 0.14–100 µM
T1 construct: purchased Solvo Biotechnology, Budaors, Hungary; host or cells: Sf9 insect cells (membrane vesicles)
T1 sequence (O95342 whole entry): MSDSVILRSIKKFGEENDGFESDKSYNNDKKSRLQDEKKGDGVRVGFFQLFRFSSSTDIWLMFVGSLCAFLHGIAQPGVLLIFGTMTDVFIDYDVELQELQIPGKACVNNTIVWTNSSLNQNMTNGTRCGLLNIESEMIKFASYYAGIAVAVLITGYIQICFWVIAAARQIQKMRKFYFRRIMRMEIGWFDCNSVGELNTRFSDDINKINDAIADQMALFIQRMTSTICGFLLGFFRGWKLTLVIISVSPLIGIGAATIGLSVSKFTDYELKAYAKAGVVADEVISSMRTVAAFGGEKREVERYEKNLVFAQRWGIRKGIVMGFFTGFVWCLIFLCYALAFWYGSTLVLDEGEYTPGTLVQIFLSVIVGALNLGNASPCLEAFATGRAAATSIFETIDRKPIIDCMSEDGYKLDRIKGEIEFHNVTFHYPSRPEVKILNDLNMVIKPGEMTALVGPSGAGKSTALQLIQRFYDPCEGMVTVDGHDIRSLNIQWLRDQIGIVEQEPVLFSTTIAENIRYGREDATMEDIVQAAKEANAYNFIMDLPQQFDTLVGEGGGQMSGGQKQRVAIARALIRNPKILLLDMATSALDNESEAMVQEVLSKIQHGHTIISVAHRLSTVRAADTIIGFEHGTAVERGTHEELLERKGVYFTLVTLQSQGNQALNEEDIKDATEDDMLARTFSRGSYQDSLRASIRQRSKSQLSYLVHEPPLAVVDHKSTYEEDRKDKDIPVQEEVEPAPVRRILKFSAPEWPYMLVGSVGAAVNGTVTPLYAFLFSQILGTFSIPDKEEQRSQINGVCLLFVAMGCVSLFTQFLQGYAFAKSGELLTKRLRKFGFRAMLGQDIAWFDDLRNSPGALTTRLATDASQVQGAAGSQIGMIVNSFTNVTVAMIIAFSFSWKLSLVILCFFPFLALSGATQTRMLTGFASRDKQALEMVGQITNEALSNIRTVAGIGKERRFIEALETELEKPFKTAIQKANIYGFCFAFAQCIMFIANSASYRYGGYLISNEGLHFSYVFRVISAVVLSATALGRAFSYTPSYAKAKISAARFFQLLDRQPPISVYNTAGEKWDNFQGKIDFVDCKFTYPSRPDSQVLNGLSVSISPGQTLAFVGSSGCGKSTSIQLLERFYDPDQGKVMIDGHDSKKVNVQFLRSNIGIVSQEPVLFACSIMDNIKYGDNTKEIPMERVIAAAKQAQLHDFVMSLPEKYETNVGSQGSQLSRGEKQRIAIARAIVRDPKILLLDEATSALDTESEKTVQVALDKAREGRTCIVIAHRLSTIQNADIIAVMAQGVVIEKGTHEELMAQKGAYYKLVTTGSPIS
Text: Chinese Hamster Ovary (CHO) cells were obtained from Professor B. Stieger’s laboratory at University of Zurich, Zurich, Switzerland. Madin-Darby Canine Kidney strain II (MDCKII) cells were obtained from Nederlands Kanker Instituut (NKI), Amsterdam, Netherlands. NTCP-CHO cells, BSEP and MRP2 membrane vesicles were developed and validated at Solvo Biotechnology, Budaors, Hungary.
BSEP and MRP2 inhibition was studied in membrane vesicles isolated from sf9 insect cells overexpressing the respective transporters. Vesicular transport inhibition assays used test compounds incubated with membrane vesicle preparations (total protein: 50 µg/well) and probe substrates, taurocholate (2 µM) for BSEP or Estradiol-17-beta-glucuronide (0.2 µM) for MRP2, in the absence or presence of ATP. Reaction mixtures were preincubated for 15 min at 37°C. Reactions were started by the addition of 25 µL of 12 mM MgATP or assay buffer (for background controls), preincubated separately. Reactions were stopped after 5 min by the addition of 200 µL of ice-cold washing buffer and immediate filtration via glass fiber filters mounted to a 96-well plate (filter plate). The filters were washed, dried and the amount of substrate inside the filtered vesicles determined by liquid scintillation. Cyclosporin A (20 µM) or benzbromarone (100 µM), for BSEP or MRP2, respectively, were used as positive control inhibitors. Control membranes lacking transporter expression were used as negative control.
All assays were performed in duplicate. IC50 was defined as the test article concentration needed to inhibit the maximal transporter specific accumulation by 50%. IC50 values were calculated using non-linear fitting of % inhibition versus concentration to a sigmoidal curve with a variable Hill Coefficient using GraphPad Prism 5 (GraphPad Software Inc., San Diego, CA).

Row | hepatocyte accumulation relative to the extracellular test concentration [1] [x] | hepatocyte accumulation relative to the extracellular test concentration ([1]; listed as Macitentan) [x] | Structure (SMILES) | pIC50 (BSEP)
1 | ~40 |  | Cc1cc2c(cc1CC(=O)c1sccc1S(=O)(=O)Nc1onc(C)c1Cl)OCO2 [sitaxsentan] | 
2 | ~20 |  | COc1ccccc1Oc1c(NS(=O)(=O)c2ccc(C(C)(C)C)cc2)nc(-c2ncccn2)nc1OCCO [bosentan] | 4.38
3 | > 100 | ~100 | CCCNS(=O)(=O)Nc1ncnc(OCCOc2ncc(Br)cn2)c1-c1ccc(Br)cc1 [macitentan] | 4.92
4 |  |  | COC(c1ccccc1)(c1ccccc1)[C@H](Oc1nc(C)cc(C)n1)C(=O)O [ambrisentan] | < 4.00
